The results in this text go back to the NIST ThermoML archive (doi:10.1016/j.fluid.2004.10.025).

Molecules are shown by their SMILES. Numbers after ± are expanded uncertainties.

The conditions of this series: Liquid.

As a reminder, the vapor or sublimation pressure is the equilibrium pressure above the liquid or solid. On to `ClC(Cl)C(Cl)Cl` [1,1,2,2-tetrachloroethane], for which the “vapor or sublimation pressure” value is, setting by setting: (283.15 K) 0.263 ± 0.021 kPa; (288.15 K) 0.373 ± 0.021 kPa; (293.15 K) 0.521 ± 0.022 kPa; (298.15 K) 0.711 ± 0.023 kPa; (303.15 K) 0.98 ± 0.025 kPa; (308.15 K) 1.289 ± 0.028 kPa. Besides, the “vapor or sublimation pressure” value runs as follows: (313.15 K) 1.701 ± 0.028 kPa; (318.15 K) 2.236 ± 0.029 kPa; (323.15 K) 2.86 ± 0.03 kPa.
In the case of `ClC(Cl)=C(Cl)Cl` [tetrachloroethene], the “vapor or sublimation pressure” value runs as follows: (283.15 K) 1.023 ± 0.026 kPa; (288.15 K) 1.4 ± 0.027 kPa; (293.15 K) 1.861 ± 0.028 kPa; (298.15 K) 2.462 ± 0.029 kPa; (303.15 K) 3.205 ± 0.031 kPa; (308.15 K) 4.117 ± 0.033 kPa. In addition, the “vapor or sublimation pressure” value came out at 5.253 ± 0.036 kPa (313.15 K), 6.621 ± 0.039 kPa (318.15 K) and 8.286 ± 0.043 kPa (323.15 K).
With `ClC(Cl)(Cl)Cl` [tetrachloromethane], the “vapor or sublimation pressure” value (283.15 K) is listed as 7.514 ± 0.042 kPa; the “vapor or sublimation pressure” value (288.15 K) amounted to 9.601 ± 0.047 kPa; the “vapor or sublimation pressure” value (293.15 K) was 12.14 ± 0.054 kPa; the “vapor or sublimation pressure” value (298.15 K) was determined as 15.22 ± 0.064 kPa; the “vapor or sublimation pressure” value (303.15 K) is reported as 18.98 ± 0.076 kPa; the “vapor or sublimation pressure” value (308.15 K) turned out to be 23.36 ± 0.09 kPa. The “vapor or sublimation pressure” value amounted to 28.53 ± 0.11 kPa (313.15 K), 34.59 ± 0.13 kPa (318.15 K) and 41.68 ± 0.15 kPa (323.15 K).
